From article PMC12392461, “Beyond Estrogenicity: A Comparative Assessment of Bisphenol A and Its Alternatives in In Vitro Assays Questions Safety of Replacements” (Environmental Science & Technology, 2025)
Read-outs that look alike come from different tables or passages of the source.

Key:
SH-SY5Y cells = conditions: for IC10, linear transformed / IC10, linear / logIC10: NOI bioassay cytotoxicity, dosing range all; for IC10, linear: linear model; for logIC10: log-logistic model; for IC10, SH-S5Y5, NOI: cytotoxicity, NOI assay cells; for Toxic ratio (TR) TRNOI: against baseline cytotoxicity
Method: Cell culture conditions and bioassay protocols including response detection are provided in Text S2.1–2.4 and Table S3. − Cell viability was determined from cell confluency using an IncuCyte S3 Live-Cell Analysis System (Sartorius AG, Essen, Germany) before and after exposure, except for SH-SY5Y cells (live–dead staining with Nuclear Green LcS1 and propidium iodide, Abcam, UK). For metabolic activation experiments, cell viability was assessed using the ToxBLAzer DualScreen Kit (Thermo Fisher Scientific) to capture the remaining toxicity in ERα-UAS-bla GripTite after treatment with the aCYP catalyst (details in Text S2.4). […]
(§1) We measured the cytotoxicity of BPA and its alternatives in HEK293H (PPARγ), HEK293T (ERα), H4IIe (AhR CALUX), MCF7 (ARE/MMP), and differentiated SH-SY5Y cells (Table S6). […]
medium, supplemented with 2% B-27 Supplement and 2 mM GlutaMAX Supplement. SH - SY5Y cells were differentiated with 10 µM all-trans retinoic acid prior to the assay.
(§2) S2.2: Cell Seeding and Incubation. For all bioassays, cell suspensions in the respective assay medium were dispensed into each well of 384-well plates using a MultiFlo Dispenser (Biotek, (now Agilent), Winooski, VT, U.S.). After seeding, the plates were incubated at 37° C and 5% […]
(§3) NYC, U.S.) for AhR: 3250 cells/well. Black Collagen I coated plates were used (Product No.
(§4) S2.3: Chemical Dosing and Assay Analysis Procedures. The dosing procedure and high-throughput assay workflow have been described in detail before. 9 The dosing concentrations […]
(§5) Stock solutions were then either added directly to the respective cell culture medium or evaporated under nitrogen, followed by replenishment with fresh medium. The final solvent content in each well was kept below 1% for methanol, 0% for acetonitrile.
(§6) Dosing plates were prepared as 11 -step serial dilutions using a Hamilton Microlab Star robotic system (Hamilton, Bonaduz, Switzerland), and chemicals were dosed in duplicates by transferring 10 μL twice from the dosing plates to the cell plates . After quantifying cell confluency as described in S2. 4., the exposed cells were incubated at 37° C and 5% CO₂ for an additional 24 h. All chemicals were tested in all assays with at least three independent […]
(§7) S2.4: Cell Viability Measurement s and bioanalytical protocols . The confluency as a measure of cell viability was determined with an IncuCyte S3 Live -Cell Analysis System (Sartorius AG, Essen, Germany). With this method the confluency of cells in a microscopy image are normalized to control wells without cells and compared before and after 24 hours of exposure.
This method has been described previously 13. Cell viability of SH-SY5Y cells was measured […]
propidium iodide (PI, Abcam, Cambridge, U.K.).14 Nuclear Green LCS1 is a membrane-permeable dye that stains the nuclei of all cells, whereas PI only enters cells with compromised membrane integrity (non-viable cells). After staining, live cells show green nuclei without red fluorescence, while dead cells display both green and red nuclear fluorescence due to PI […]
intercalation. […]

MCF7 (ARE/MMP) = conditions: for IC10, linear transformed / IC10, linear / logIC10: dosing range all; for IC10, MCF7, ARE: MCF7, ARE readout; for IC10, MCF7, MMP: MCF7, MMP readout; for Toxic ratio (TR) TRARE / Toxic ratio (TR) TRMMP: against baseline cytotoxicity; for Toxic ratio (TR) TRARE: ARE readout; for Toxic ratio (TR) TRMMP: MMP readout
Method: (§8) Cell culture conditions and bioassay protocols including response detection are provided in Text S2.1–2.4 and Table S3. − Cell viability was determined from cell confluency using an IncuCyte S3 Live-Cell Analysis System (Sartorius AG, Essen, Germany) before and after exposure, except for SH-SY5Y cells (live–dead staining with Nuclear Green LcS1 and propidium iodide, Abcam, UK). For metabolic activation experiments, cell viability was assessed using the ToxBLAzer DualScreen Kit (Thermo Fisher Scientific) to capture the remaining toxicity in ERα-UAS-bla GripTite after treatment with the aCYP catalyst (details in Text S2.4).
(§9) For ARE, the concentration that triggered an induction ratio of 1.5 (ECIR1.5) was used as the benchmark value, as detailed in Text S2.5. IC10 values also served as a threshold for data analysis in all assays; only concentrations below IC10 were considered when deriving EC10 or ECIR1.5.
as §1
as §2, with “5% CO₂ for […]. The final cell densities and plate types were as follows: Black poly-D-lysine” for “5%”
(§10) 6500 cells/well, ERα: 5000 cells/well. White 384-well plates with a clear bottom (Product No.
as §3, §4, §5, §6, §7
(§11) This method has been described previously 13. […]

HEK293T (ERα) = conditions: for IC10, linear transformed / IC10, linear / logIC10: Bioassay ERα, dosing range all; for IC10, linear transformed / IC10, linear / logIC10 / IC10, HEK293, ERα: cytotoxicity; for IC10, linear: linear model fit; for logIC10: log-logistic model fit; for IC10, HEK293, ERα: HEK293 (ERα assay cells); for Toxic ratio (TR) TRERα: against baseline cytotoxicity
Method: as §8, §9, §1
as §2, with “5% CO₂ for […]. The final cell densities and plate types were as follows: Black poly-D-lysine” for “5%”
as §10, §3, §4, §5, §6, §7, §11

H4IIe (AhR CALUX) = conditions: for IC10, linear transformed / IC10, linear / logIC10: Bioassay AhR, dosing range all; for IC10, linear transformed / IC10, linear / logIC10 / IC10, H4IIe, AhR: cytotoxicity; for IC10, linear: linear model fit; for logIC10: log-logistic model fit; for IC10, H4IIe, AhR: H4IIe (AhR assay cells); for Toxic ratio (TR) TRAhR: against baseline cytotoxicity
Method: as §8, §9, §1
as §2, with “5% CO₂ for […]. The final cell densities and plate types were as follows: Black poly-D-lysine” for “5%”
as §10, §3, §4, §5, §6, §7, §11

[1] = biological target: T1, Peroxisome proliferator-activated receptor γ (Homo sapiens, UniProt P37231); assay: cell-based; conditions: for EC10, linear / logEC10 / EC10, linear transformed: PPARγ bioassay, dosing range all; for EC10, linear: linear model; for logEC10: log-logistic model; for EC10, PPARγ (M): 10% of maximum effect of rosiglitazone; for SR-ScorePPARγ: SR-Score, sigma k=1, x=5; for Specificity ratio (SRbaseline) SRPPARγ: against baseline cytotoxicity; for Specificity ratio (SRcytotoxicity) SRPPARγ: against experimental cytotoxicity; for EC10, PPARγ: effect; for log(1/EC10) PPARγ: input of the ToxPi score, values up to 1.00; for Emax: read-out: Emax%PPARγ
T1 sequence (P37231 238-505 limits assumed): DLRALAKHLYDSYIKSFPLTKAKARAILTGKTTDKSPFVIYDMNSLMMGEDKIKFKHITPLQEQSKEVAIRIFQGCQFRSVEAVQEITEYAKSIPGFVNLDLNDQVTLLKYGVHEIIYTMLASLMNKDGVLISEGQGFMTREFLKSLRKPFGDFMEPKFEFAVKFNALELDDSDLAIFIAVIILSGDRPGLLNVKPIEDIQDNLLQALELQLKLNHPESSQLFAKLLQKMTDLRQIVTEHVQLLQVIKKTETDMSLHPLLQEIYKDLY
In short: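 ERα-UAS-bla GripTite and PPARγ-UAS-bla reporter cells were seeded in assay medium with 2% charcoal-stripped FBS and held 24 h at 37 °C before dosing. Viability came from IncuCyte confluency before and after exposure. EC10 used only concentrations below IC10; Emax% is the log-logistic curve maximum relative to the reference chemical.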

[2] = Bioassay ARE, cytotoxicity, linear model fit
[3] = Bioassay ARE, cytotoxicity, log-logistic model fit
[4] = MMP bioassay cytotoxicity, linear model
[5] = MMP bioassay cytotoxicity, log-logistic model

| SMILES | IC10, linear transformed (SH-SY5Y cells) | IC10, linear (SH-SY5Y cells) | logIC10 (SH-SY5Y cells) | IC10, SH-S5Y5, NOI (SH-SY5Y cells) | IC10, linear transformed (MCF7 (ARE/MMP); Bioassay ARE, cytotoxicity) | IC10, linear (MCF7 (ARE/MMP); [2]) | logIC10 (MCF7 (ARE/MMP); [3]) | IC10, linear transformed (MCF7 (ARE/MMP); MMP bioassay cytotoxicity) | IC10, linear (MCF7 (ARE/MMP); [4]) | logIC10 (MCF7 (ARE/MMP); [5]) | IC10, MCF7, ARE (MCF7 (ARE/MMP); cytotoxicity) | IC10, MCF7, MMP (MCF7 (ARE/MMP); cytotoxicity) | IC10, linear transformed (HEK293T (ERα)) | IC10, linear (HEK293T (ERα)) | logIC10 (HEK293T (ERα)) | IC10, HEK293, ERα (HEK293T (ERα)) | IC10, linear transformed (H4IIe (AhR CALUX)) | IC10, linear (H4IIe (AhR CALUX)) | logIC10 (H4IIe (AhR CALUX)) | IC10, H4IIe, AhR (H4IIe (AhR CALUX)) | also measured |
| --- | --- | --- | --- | --- | --- | --- | --- | --- | --- | --- | --- | --- | --- | --- | --- | --- | --- | --- | --- | --- | --- |
| Oc1ccc(Cc2ccc(O)cc2)cc1 [BPF, Bis(4-hydroxyphenyl)methane] | 5.69E-04 | 5.56E-04 | -3.24 | 569 µM | 6.56E-04 | 6.90E-04 | -3.18 | 5.26E-04 | 5.00E-04 | -3.28 | 656 µM | 526 µM | 1.16E-05 | 1.61E-04 | -3.78 | 164 µM | 2.92E-04 | 2.92E-04 | -3.53 | 292 µM | EC10, linear [1]: no effect; logEC10 [1]: no effect |
| CC(C)c1cc(C(C)(C)c2ccc(O)c(C(C)C)c2)ccc1O [BPG, 2,2-Bis(4-hydroxy-3-isopropylphenyl)propane] | 3.61E-05 | no cytotoxicity | -4.44 | 36.1 µM | 6.03E-06 | 7.17E-06 | -5.22 | 8.72E-06 | 8.88E-06 | -5.06 | 6.03 µM | 8.72 µM | 5.99E-06 | no cytotoxicity | -5.16 | 6.95 µM | 2.43E-05 | 2.10E-05 | -4.61 | 21 µM | Toxic ratio (TR) TRNOI (SH-SY5Y cells): 0.08; Toxic ratio (TR) TRARE (MCF7 (ARE/MMP)): 0.88; Toxic ratio (TR) TRMMP (MCF7 (ARE/MMP)): 0.61; Toxic ratio (TR) TRERα (HEK293T (ERα)): 0.21; Toxic ratio (TR) TRAhR (H4IIe (AhR CALUX)): 0.25; EC10, PPARγ (M) [1]: 1.17 × 10^–7 M; EC10, linear transformed [1]: 1.17E-07; EC10, linear [1]: 1.61E-07; logEC10 [1]: -6.93; SR-ScorePPARγ [1]: 1.00; Specificity ratio (SRbaseline) SRPPARγ [1]: 12.28; Specificity ratio (SRcytotoxicity) SRPPARγ [1]: 54.95; EC10, PPARγ [1]: 0.117 µM; log(1/EC10) PPARγ [1]: 0.98; Emax [1]: 22% |
| CC(C)(c1ccc(O)c(-c2ccccc2)c1)c1ccc(O)c(-c2ccccc2)c1 [BPPH, 2,2-Bis(2-hydroxy-5-biphenylyl)propane] | 2.31E-05 | no cytotoxicity | -4.64 | 23.1 µM | 2.86E-06 | 5.76E-06 | -5.54 | 7.75E-06 | 5.66E-06 | -5.11 | 2.86 µM | 7.75 µM | 5.43E-06 | no cytotoxicity | -5.08 | 8.3 µM | 1.81E-05 | 1.29E-05 | -4.74 | 12.9 µM | Toxic ratio (TR) TRNOI (SH-SY5Y cells): 0.08; Toxic ratio (TR) TRARE (MCF7 (ARE/MMP)): 1.43; Toxic ratio (TR) TRMMP (MCF7 (ARE/MMP)): 0.53; Toxic ratio (TR) TRERα (HEK293T (ERα)): 0.13; Toxic ratio (TR) TRAhR (H4IIe (AhR CALUX)): 0.32; EC10, PPARγ (M) [1]: 5.55 × 10^–7 M; EC10, linear transformed [1]: 5.55E-07; EC10, linear [1]: 9.24E-07; logEC10 [1]: -6.26; SR-ScorePPARγ [1]: 1.00; Specificity ratio (SRbaseline) SRPPARγ [1]: 1.90; Specificity ratio (SRcytotoxicity) SRPPARγ [1]: 12.47; EC10, PPARγ [1]: 0.555 µM; log(1/EC10) PPARγ [1]: 0.88; Emax [1]: 12% |
| C=CCOc1ccc(S(=O)(=O)c2ccc(O)cc2)cc1 [BPS-MAE, 4-[[4-(Allyloxy)phenyl]sulfonyl]phenol] | 1.36E-04 | no cytotoxicity | -3.87 | 136 µM | 3.86E-04 | 4.93E-04 | -3.41 | 8.44E-04 | 1.02E-03 | -3.07 | 386 µM | 844 µM | 6.22E-05 | 2.44E-04 | -3.85 | 244 µM | 8.61E-05 | 8.24E-05 | -4.07 | 82.4 µM | EC10, PPARγ (M) [1]: 5.57 × 10^–7 M; EC10, linear transformed [1]: 5.57E-07; EC10, linear [1]: 6.41E-07; logEC10 [1]: -6.25; SR-ScorePPARγ [1]: 1.00; EC10, PPARγ [1]: 0.557 µM; log(1/EC10) PPARγ [1]: 0.88; Emax [1]: 22% |
